Reference: ChEMBL document CHEMBL6121011, “An oxidation-reduction-triggered thiamine disulfide-based prodrug of 10-hydroxycamptothecin for selective tumor cell locking and therapeutic delivery” (Eur J Med Chem, 2025)
The source made the active and inactive calls. No cut-off for these calls is given here.

Key:
[1] = Toxicity in BALB/c mouse implanted with mouse 4T1 cells assessed as damage in major organ tissues administered intravenously once every two days at equivalent dose of 10 mg/kg of HCPT for 14 days; assay type: organism-based; settings: in vivo, iv, 336 h, time 14 day
[2] = system: 4T1; test: Induction of intracellular ROS generation in mouse 4T1 cells at 0.5 uM incubated for 24 hrs by DCFH-DA probe based CLSM analysis; assay type: functional, cell-based
[3] = Antiproliferative activity against human MCF-10A cells incubated for 48 hrs by CCK8 assay; assay type: toxicity, cell-based
[4] = system: MCF7; test: Antiproliferative activity against human MCF7 cells incubated for 48 hrs by CCK8 assay; assay type: functional, cell-based; settings: MCF7, 48 h
[5] = system: U-87 MG; test: Antiproliferative activity against human U-87 MG cells incubated for 48 hrs by CCK8 assay; assay type: functional, cell-based, U-87MG ATCC
[6] = system: HepG2; test: Antiproliferative activity against human HepG2 cells incubated for 48 hrs by CCK8 assay; assay type: functional, cell-based; settings: HepG2, 48 h
[7] = Toxicity in BALB/c mouse implanted with mouse 4T1 cells assessed as body weight loss administered intravenously once every two days at equivalent dose of 10 mg/kg of HCPT for 14 days; assay type: organism-based; settings: in vivo, iv, 336 h, time 14 day
[8] = system: 4T1; test: Antitumor activity against mouse 4T1 cells implanted in BALB/c mouse assessed as tumor growth inhibition administered intravenously once every two days at equivalent dose of 10 mg/kg of HCPT for 14 days; assay type: functional, organism-based; settings: route iv, time 14.0 day
[9] = system: 4T1; test: Anti-metastatic activity in mouse 4T1 cells assessed as wound closure at 0.5 uM incubated for 24 hrs by scratch-wound assay (reference value: 42 %); assay type: functional
[10] = system: MDA-MB-231; test: Antiproliferative activity against human MDA-MB-231 cells incubated for 48 hrs by CCK8 assay; assay type: functional, cell-based; settings: MDA-MB-231, 48 h
[11] = system: 4T1; test: Induction of mitochondrial damage in mouse 4T1 cells assessed as increase in green fluorescence at 0.5 uM incubated for 24 hrs by JC-1 staining based CLSM analysis; assay type: functional, cell-based
[12] = system: PC-3; test: Antiproliferative activity against human PC-3 cells incubated for 48 hrs by CCK8 assay; assay type: functional, cell-based; settings: PC-3, 48 h
[13] = Toxicity in BALB/c mouse implanted with mouse 4T1 cells assessed as animal death administered intravenously once every two days at equivalent dose of 10 mg/kg of HCPT for 14 days; assay type: organism-based; settings: in vivo, iv, 336 h, time 14 day
[14] = system: 4T1; test: Antiproliferative activity against mouse 4T1 cells incubated for 48 hrs by CCK8 assay; assay type: functional, cell-based; settings: 4T1, 48 h
[15] = Toxicity in BALB/c mouse implanted with mouse 4T1 cells assessed as animal death at 10 mg/kg, iv once every two days measured for 9 to 10 days; assay type: organism-based; settings: in vivo, time 9-10 day
[16] = system: 4T1; test: Antitumor activity against mouse 4T1 cells implanted in BALB/c mouse assessed as tumor growth inhibition at 10 mg/kg, iv once every two days for 14 days; assay type: functional, organism-based; settings: time 14.0 day
[17] = Cmax in Sprague-Dawley rat at 10 mg/kg, iv by HPLC-MS analysis; assay type: ADME, organism-based; settings: in vivo
[18] = AUC in Sprague-Dawley rat at 10 mg/kg, iv by HPLC-MS analysis; assay type: ADME, organism-based; settings: in vivo
[19] = Drug internalization in mouse 4T1 cells assessed as green fluorescence in cytoplasm at 20 uM measured after 8 hrs by CLSM analysis; assay type: ADME, cell-based; settings: 4t1, 8 h
[20] = Drug localization in cytoplasm of mouse 4T1 cells at 20 uM measured after 2 hrs by CLSM analysis; assay type: ADME, subcellular; settings: 4t1, 2 h
[21] = Drug internalization in mouse 4T1 cells assessed as green fluorescence in cytoplasm at 20 uM measured after 1 hr by CLSM analysis; assay type: ADME, cell-based; settings: 4t1, 1 h
[22] = Drug localization in mitochondria of mouse 4T1 cells at 20 uM measured after 2 hrs by CLSM analysis; assay type: ADME; settings: 4t1, 2 h
[23] = Prodrug release in mouse 4T1 cells assessed as Nap release at 20 uM measured after 2 hrs by confocal microscopy; assay type: ADME, cell-based; settings: 4t1, 2 h
[24] = Prodrug release in human MCF-10A cells assessed as Nap release at 20 uM measured after 2 hrs by confocal microscopy; assay type: ADME, cell-based
[25] = Drug internalization in mouse 4T1 cells assessed as green fluorescence in cytoplasm at 20 uM measured after 2 hrs by CLSM analysis; assay type: ADME, cell-based; settings: 4t1, 2 h
[26] = Drug localization in mitochondria of mouse 4T1 cells at 20 uM measured after 2 hrs by flow cytometry; assay type: ADME; settings: 4t1, 2 h
[27] = Cytotoxicity against human MCF-10A cells assessed as cell viability at 5 to 50 uM incubated for 24 hrs by CCK8 assay relative to control; assay type: toxicity, cell-based; settings: dose 5-50 µM, read-out: Activity
[28] = Drug internalization in mouse 4T1 cells assessed as fold change in green fluorescence in cytoplasm at 20 uM measured after 8 hrs by flow cytometry relative to TD-Nap; assay type: ADME, cell-based; settings: 4t1, 8 h
[29] = Drug internalization in mouse 4T1 cells assessed as fold change in green fluorescence in cytoplasm at 20 uM measured after 8 hrs by flow cytometry relative to K-Nap; assay type: ADME, cell-based; settings: 4t1, 8 h
[30] = Prodrug release in human MCF7 cells assessed as Nap release at 20 uM measured after 2 hrs by confocal microscopy; assay type: ADME, cell-based; settings: mcf7, 2 h
[31] = system: 4T1; test: Induction of intracellular ROS generation in mouse 4T1 cells assessed as fold increase in DCF fluorescence at 0.5 uM incubated for 24 hrs by DCFH-DA probe based CLSM analysis relative to control; assay type: functional
[32] = Prodrug release in human MDA-MB-231 cells assessed as Nap release at 20 uM measured after 2 hrs by confocal microscopy; assay type: ADME, cell-based; settings: mda-mb-231, 2 h
[33] = system: 4T1; test: Cytotoxicity against mouse 4T1 cells assessed as cell viability at 5 to 50 uM incubated for 24 hrs by CCK8 assay relative to control; assay type: functional; settings: dose 5-50 µM
[34] = Prodrug stability in 5 uM to 5 mM GSH assessed as compound remaining at 20 uM measured for 24 hrs by RP-HPLC analysis; assay type: ADME
[35] = system: 4T1; test: Antitumor activity against mouse 4T1 cells implanted in BALB/c mouse assessed as reduction in tumor weight administered intravenously once every two days at equivalent dose of 10 mg/kg of HCPT for 14 days; assay type: functional, organism-based; settings: route iv, time 14.0 day
[36] = AUC in Sprague-Dawley rat at 24 mg/kg, iv by HPLC-MS analysis; assay type: ADME, organism-based; settings: in vivo
[37] = Prodrug stability in 10 mM H2O2 assessed as compound remaining at 18 uM measured after 12 hrs by RP-HPLC analysis; assay type: ADME
[38] = system: 4T1; test: Antitumor activity against mouse 4T1 cells implanted in BALB/c mouse assessed as increase in pyknotic cells with highly condensed nuclei administered intravenously once every two days at equivalent dose of 10 mg/kg of HCPT for 14 days by H and E staining based analysis; assay type: functional, organism-based; settings: route iv, time 14.0 day
[39] = Prodrug stability in 100 mM H2O2 assessed as compound remaining at 18 uM measured after 2 hrs by RP-HPLC analysis; assay type: ADME
[40] = Cmax in Sprague-Dawley rat assessed as fold change at 24 mg/kg, iv by HPLC-MS analysis relative to HCPT; assay type: ADME, organism-based; settings: in vivo
[41] = AUC in Sprague-Dawley rat assessed as fold change at 24 mg/kg, iv by HPLC-MS analysis relative to HCPT; assay type: ADME, organism-based; settings: in vivo
[42] = Prodrug stability in 5 mM GSH assessed as compound remaining at 18 uM measured after 12 hrs by RP-HPLC analysis; assay type: ADME
[43] = system: 4T1; test: Antitumor activity against mouse 4T1 cells implanted in BALB/c mouse assessed as reduction in tumor size administered intravenously once every two days at equivalent dose of 10 mg/kg of HCPT for 14 days; assay type: functional, organism-based; settings: route iv, time 14.0 day
[44] = Terminal elimination half life in Sprague-Dawley rat at 24 mg/kg, iv by HPLC-MS analysis; assay type: ADME, organism-based; settings: in vivo, read-out: LambdaZ (converted)
[45] = Cmax in Sprague-Dawley rat at 24 mg/kg, iv by HPLC-MS analysis; assay type: ADME, organism-based; settings: in vivo
[46] = Prodrug stability in 5 uM GSH assessed as compound remaining at 18 uM measured after 24 hrs by RP-HPLC analysis; assay type: ADME

SMILES	Activity [1]	Activity [2]	IC50 at 48 h [3] [µM]	IC50 [4] [µM]	IC50 [5] [µM]	IC50 [6] [µM]	Activity [7]	inhibition [8]	Activity [9] [%]	IC50 [10] [µM]	Activity [11]	IC50 [12] [µM]	Activity [13]	IC50 [14] [µM]	Drug uptake [19]	Drug uptake [20]	Drug uptake [21]	Drug uptake [22]	other results
CC[C@@]1(O)C(=O)OCc2c1cc1n(c2=O)Cc2cc3cc(OC(=O)CCC(=O)OCC/C(SSCC(C)C)=C(\C)N(C)C=O)ccc3nc2-1	Non-toxic	inactive	10.5	7.32	5.48	5.32	Non-toxic	Active; Moderate Effect Observed	~25	10.4	Active	3.45	Non-toxic	5.34	–	–	–	–	–
CC[C@@]1(O)C(=O)OCc2c1cc1n(c2=O)Cc2cc3cc(O)ccc3nc2-1 [HYDROXYCAMPTOTHECIN]	–	Active; Moderate Elevations Observed	3.17	1.09	2.43	0.95	–	–	~34	3.12	Active; Moderate Activity Observed	1.46	–	1.71	–	–	–	–	Activity [15]: Toxic; inhibition [16]: Active; Moderate Effect Observed; Cmax [17]: 1950 ng/mL; AUC [18]: 1020 ng·h/mL
C/C(=C(\CCOC(=O)CCCSC(C)(C)SCCCC(=O)O)SSCC(C)C)N(C)C=O	–	–	> 100	> 100	> 100	> 100	–	–	–	> 100	–	> 100	–	> 100	–	–	–	–	–
CCOC(=O)CCCSC(C)(C)SCCCC(=O)Oc1ccc2nc3c(cc2c1)Cn1c-3cc2c(c1=O)COC(=O)[C@]2(O)CC	Non-toxic	inactive	20.7	4.21	6.24	1.47	Non-toxic	Active; Moderate Effect Observed	~34	7.02	Active	1.93	Non-toxic	3.78	–	–	–	–	–
CCCN1C(=O)c2cccc3c(OC(=O)CCC(=O)OCC/C(SSCC(C)C)=C(\C)N(C)C=O)ccc(c23)C1=O	–	–	–	–	–	–	–	–	–	–	–	–	–	–	Not_active	Active	Active	Active	–
CCCN1C(=O)c2cccc3c(OC(=O)CCCSC(C)(C)SCCCC(=O)OCC/C(SSCC(C)C)=C(\C)N(C)C=O)ccc(c23)C1=O	–	–	–	–	–	–	–	–	–	–	–	–	–	–	Active	Active	Active	Active	Drug metabolism [23]: metabolite_detected; Drug metabolism [24]: metabolite_notdetected; Drug uptake [25]: Active; Drug uptake [26]: Active; viability at 24 h, 50 µM [27]: > 90%; fold change (FC) [28]: ~ 2; fold change (FC) [29]: ~ 2; Drug metabolism [30]: metabolite_detected; fold change (FC) [31]: ~6.5; Drug metabolism [32]: metabolite_detected; Activity [33]: >90%; Stability [34]: Stable
CCCN1C(=O)c2cccc3c(OC(=O)CCCSC(C)(C)SCCCC(=O)OCC)ccc(c23)C1=O	–	–	–	–	–	–	–	–	–	–	–	–	–	–	Active	Active	Active	Active	Drug uptake [25]: Active
CC[C@@]1(O)C(=O)OCc2c1cc1n(c2=O)Cc2cc3cc(OC(=O)CCCSC(C)(C)SCCCC(=O)OCC/C(SSCC(C)C)=C(\C)N(C)C=O)ccc3nc2-1	Non-toxic	–	33.3	1.02	4.05	1.01	Non-toxic	Active; Most Pronounced Effect Observed Among Tested Compounds	11	5.43	Active; Most Potential Among Tested Compounds	1.39	Non-toxic	0.96	–	–	–	–	Activity [35]: Active; Lowest Tumor Weigth Observed Among Tested Compounds; AUC [36]: 2720 ng·h/mL; Stability [37]: < 12%; Activity [38]: Active; Stability [39]: Unstable; fold change (FC) [40]: 4; fold change (FC) [41]: 2; Stability [42]: <= 10%; Activity [43]: Active; Exhibited Smallest Tumor Among Tested Compounds; half-life [44]: 3.24 h; Cmax [45]: 7450 ng/mL; Stability [46]: 84.8%
